# Like-named read-outs stand apart in the source and are kept apart here.
# Columns and labels:
# SCC104 (HPV+) = assay: Colony formation assay, SCC104; format: cell-based; conditions: 24 hours treatment then seeded
# Method: (§1) Sub-confluent monolayer cells were treated with different doses of GA-OH for 24 hours. Cells were trypsinized and re-suspended before re-plating into 6 well plates in DMEM or MEM at 500–1000 cell densities, depending on the cell line. Cells were then allowed to grow for 10–20 days, depending on the cell line, before fixing and staining. A mixture of methanol/acetic acid was used for fixing, followed by 0.5% crystal violet staining. Plates were imaged using UV imager, and colonies with more than […] counted using image J. Surviving fractions were determined by dividing the number of colonies by the number of cells seeded as a product of the corresponding plating efficiency. Survival fractions curves were plotted using GraphPad Prism.
# [1] = tested on: Caspase 3/7 activity in SCC19, SCC84; assay: Caspase 3/7 Glo activity assay, HPV- cell lines; format: cell-based; conditions: 0.75 μM, 24 hr
# Method: (§2) Cells were seeded into white walled 96-well plates at 2 × 10^4 cells per well in 100 μL media and incubated overnight. GA-OH (0.75 μM) and vehicle were then added and incubated at 37°C for 24 hr. Caspase 3/7 activity was measured using the Caspase 3/7 Glo kit (Promega, Fitchburg, WI, USA) following the manufacturer's instructions. Briefly, room temperature-equilibrated Caspase-Glo reagent was added (Promega) to each well. The plate was mixed by placing it on an orbital shaker and incubated for 30 secs at room temperature, then incubated at room temperature. After a 2-hr incubation, luminescence was measured using a plate-reading fluorimeter (Flx800, Bio-Tek Instrument Co., Winooski, VT, USA). Background activity (blank reaction) was subtracted from all experimental wells. Percent activity of caspase 3/7 in wells treated with GA was then expressed relative to vehicle treated wells.
# [2] = tested on: HPV+ HNSCC cell line SCC104; assay: MTT cell viability assay of analogs in SCC104; format: cell-based; conditions: SCC104, 24 hr; for activity / potency in cell-based MTT assay (in words): Figure 6B
# Source text: (§3) Using the SciFinder and Zinc15 databases, we searched and identified several gambogic acid structural analogs. A subset of these analogues was commercially available and we purchased 8. The 8 analogs were obtained as follow: gambogenic amide (Enzo Life Sciences), gambogenic acid (Selleckchem), morellic acid (Aobious), 30-hydroxy gambogic acid (Quality Phytochemicals, LLC), acetyl gambogic acid (Microsource), and gambogin, neogambogic acid and isomorellinol (MolPort Natural Products). Additional gambogic acid was purchased from Tocris. The interactions of the analogues with E6-caspase 8 was tested using AlphaScreen™ technology using the same protocol as with the primary screen, and were compared to the parent compound. The effect on cell viability was also similarly done in HPV^+ and HPV^- cell lines via the MTT assay (see below) and potency was determined using GraphPad IC50 curve fitting.
# (§4) All working concentrations were diluted in PBS to the desired concentration before use. To test the effect of gambogic acid and/or its derivatives on cell viability, all cell lines were seeded at 2 × 10^4 per well in 96-well plates and allowed to adhere overnight. Various concentrations of the analogues were added and the cells incubated at 37°C for 24 hr. Viability was then measured using the MTT assay, performed as described previously. All experiments were repeated at least three times (three biological replicates, carried out on different days). Data presented are from a representative experiment. Cell viability and potency were assessed from % inhibition relative to the vehicle control, and IC50 dose curves were generated using GraphPad Prism.
# [3] = tested on: p53, p21, caspase 8 in SCC90 and SCC104 cells; assay: Western blotting of p53, p21 and caspase 8 in HPV+ cells; format: cell-based; conditions: 24 hours
# Method: Adherent cells were washed with ice cold PBS. Cell lysis buffer containing protease inhibitor cocktail was added and cells were scraped off into a tube on ice. The cells were incubated on ice for 10 minutes. Cell lysates were separated by SDS-PAGE and electrophoretically transferred to PVDF membranes. Following blocking, antibodies directed against caspase 8, p53, cleaved PARP, cleaved caspase 3, p21, and β-actin (Cell signaling) were applied at 1:5000 dilution. Anti-mouse and anti-rabbit secondary antibodies were then employed (LI-COR Biosciences, Lincoln, NE, USA). Signals were measured using the Odyssey Infrared Imaging system (LI-COR Biosciences) and quantified using Image J.
# E6-Caspase 8 binding = biological target: T1, E6-Caspase 8 binding (Human papillomavirus type 16, UniProt P03126); assay: biochemical; parameters: species or system HPV E6, human Caspase 8; conditions: for inhibitory activity against E6-caspase 8 binding relative to GA (in words): SAR of analogs, Figure 6A; for activity against E6-caspase 8 binding, deviation from the parent compound (less active): relative to gambogic acid
# T1 construct: made in house; host or cells: E. coli
# Method: The compounds were diluted to a working concentration in DMSO and screened at a single-point final concentration of 10 μM with no replicates. Briefly, 75 nL of each compound was transferred and added to wells of the destination 384-well plate using the Echo dispenser to 4 μL of blocking solution. 4 μL of 800 nM GST-E6 and 4 μL of His6-Caspase 8 were added and pre-incubated at room temperature for 60 minutes. 8 μL of the donor and acceptor bead mixture (final concentration of 20 μg/ml) was then added. The plates were sealed and incubated for 4 hours at room temperature before the plates were read using the EnvisionTM Multi-Label plate reader (Perkin Elmer Inc.). […] A 10-point serial dilution of these compounds was done for dose-dependency reconfirmation. Dose response inhibition curves were constructed and IC50 calculated using GraphPad Prism using four parameter non-linear regression analysis.
# The first counter-screen assay was based using the GST-His6 fusion peptide as the E6-binding partner instead of GST-E6-His6-Caspase 8. Hit candidate compounds from the primary screen were prepared using a 6-point serial dilution. Using an Echo dispenser, compounds were transferred to plates containing 4 μL of blocking buffer. 8 μL of 5 nM GST-His6 peptide substrate was then added. The mixture was pre-incubated at room temperature for 60 minutes. Glutathione donor and nickel chelate acceptor beads (final concentration 20 μg/mL) were added and incubated for another 60 minutes at room temperature. Dose-dependency of the compounds using GST-E6-His6-Caspase 8 was performed in parallel using the same protocol as in the primary screen. The signals were then read using the Envision™ plate reader.
# as §3
# [4] = tested on: HPV+ (SCC47, SCC090, SCC104, SCC152) and HPV- (SCC19, SCC29, SCC49, SCC84) HNSCC cell lines; assay: MTT cell viability, HNSCC cell line panel; format: cell-based; conditions: 24 hr, Figure 7A
# Method: as §4
# SCC19 (HPV-) = assay: Colony formation assay, SCC19; format: cell-based; conditions: 24 hours treatment then seeded
# Method: as §1
# [5] = tested on: Caspase 3/7 activity in SCC090, SCC104, SiHa; assay: Caspase 3/7 Glo activity assay, HPV+ cell lines; format: cell-based; conditions: 0.75 μM, 24 hr
# Method: as §2
# E6-E6AP binding = biological target: T2, E6-E6AP binding (Human papillomavirus type 16, UniProt P03126); assay: biochemical; parameters: species or system HPV E6
# T2 construct: made in house; host or cells: E. coli
# Source text: Compounds that passed the two counter-screens were subjected to cheminformatic analysis as an additional filter for recognition and exclusion of compounds with problematic substructures. These substructures contain functional groups that may disrupt binding in many unrelated biochemical assays in a non-specific manner. Specifically, from the names and SMILES of the hit compounds we queried the following databases to find hits with pan assay interference (PAINS) patterns: Zinc15, SwissADME, FAFdrugs4 and PAINS-Remover. Compounds that made it onto the consensus list as having no PAINS patterns after filtering with these online tools were then selected. We then cross-validated the selected compound(s) with a related but different primary screen assay. Specifically, we replaced the caspase 8 used in the primary screen with E6AP and evaluated the inhibitory activity against E6 binding to E6AP (E6-E6AP) using the same steps as in the AlphaScreen™ protocol described above.
# [6] = parameters: method as in PMID 18384990, PMID 29077076; conditions: toxicities to organs only at high concentrations; cited from earlier work
# T1 sequence (P03126 whole entry): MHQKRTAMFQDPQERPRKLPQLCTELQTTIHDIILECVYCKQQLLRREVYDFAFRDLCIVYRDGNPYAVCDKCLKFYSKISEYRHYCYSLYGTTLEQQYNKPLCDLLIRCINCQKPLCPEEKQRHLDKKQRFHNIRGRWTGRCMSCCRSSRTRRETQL
# T2 sequence (P03126 whole entry): as above
smiles,measurement,setting,value
"CC(C)=CCCC1(C)C=Cc2c(O)c3c(c(CC=C(C)C)c2O1)OC12C(=CC4CC1C(C)(C)OC2(CC=C(CO)C(=O)O)C4=O)C3=O (stereo not drawn) [GA-OH, 30-hydroxygambogic acid]",number of colonies,SCC104 (HPV+),significantly and dose-dependently reduced
same,apoptosis activity (Caspase 3/7 activity),[1],little to no apoptosis activity
same,activity / potency in cell-based MTT assay (in words),[2],highest potency of all analogs
same,caspase 8 cleavage by western blot,"[3]; HPV+ cells, 0.5 μM and 1 μM",cleavage of caspase 8 in a dose-dependent manner
same,p53 level by immunoblotting,"[3]; SCC90 and SCC104, 0.5 μM and 1 μM",increase of p53
same,p21 level by immunoblotting,"[3]; compared to vehicle control, 0.5 μM and 1 μM",robust induction
same,inhibitory activity against E6-caspase 8 binding relative to GA (in words),E6-Caspase 8 binding,more effectively inhibited E6 binding to caspase 8 than any of the other analogs or the parent compound
same,"sensitivity of HPV+ versus HPV- HNSCC cell lines, MTT cell viability",[4],higher sensitivity
same,number of colonies,SCC19 (HPV-),did not exhibit significant reduction relative to their control except at high concentrations
same,apoptosis induction (Caspase 3/7 activity),[5],Significant apoptosis induction
"CC(C)=CCc1c2c(c(O)c3c1O[C@]14C(=C[C@@H]5C[C@H]1C(C)(C)O[C@@]4(C/C=C(/C)C(=O)O)C5=O)C3=O)C=CC(C)(C)O2 [analog #2, morellic acid]",inhibitory activity against E6-caspase 8 binding relative to GA (in words),E6-Caspase 8 binding,did not significantly affect the activity
"CC(C)=CCC/C(C)=C/Cc1c(O)c(CC=C(C)C)c2c(c1O)C(=O)C1=C[C@@H]3C[C@H]4C(C)(C)O[C@@](C/C=C(/C)C(=O)O)(C3=O)[C@@]14O2 [analog #3, gambogenic acid]","rank of highest IC50 relative to the parent compound, MTT",[2],third
same,"activity against E6-caspase 8 binding, deviation from the parent compound (less active)",E6-Caspase 8 binding,> 3 logs
"CC(C)=CCC[C@]1(C)C=Cc2c(O)c3c(c(CC=C(C)C)c2O1)O[C@]12C(=C[C@@H]4CC1C(C)(C)O[C@@]2(C/C=C(/C)C(N)=O)C4=O)C3=O [analog #4, gambogic amide]",inhibitory activity against E6-caspase 8 binding relative to GA (in words),E6-Caspase 8 binding,did not significantly affect the activity
"CC(C)=CCCC1(C)CC(O)c2c(O)c3c(c(CC=C(C)C)c2O1)OC12C(=CC4CC1C(C)(C)OC2(C/C=C(\C)C(=O)O)C4=O)C3=O (stereo not drawn) [analog #5, neo-gambogic acid]","rank of highest IC50 relative to the parent compound, MTT",[2],fourth
same,"activity against E6-caspase 8 binding, deviation from the parent compound (less active)",E6-Caspase 8 binding,> 3 logs
"CC(C)=CCCC1(C)C=Cc2c(O)c3c(c(CC=C(C)C)c2O1)O[C@]12C(=CC4C[C@H]1C(C)(C)OC2(CC=C(C)C)C4=O)C3=O (stereo partly drawn) [analog #6, gambogin]","rank of highest IC50 relative to the parent compound, MTT",[2],first
same,"activity against E6-caspase 8 binding, deviation from the parent compound (less active)",E6-Caspase 8 binding,> 3 logs
"CC(C)=CCc1c2c(c(O)c3c1OC14C(=CC5CC1C(C)(C)OC4(C/C=C(\C)CO)C5=O)C3=O)C=CC(C)(C)O2 (stereo not drawn) [analog #7, iso morellinol]",inhibitory activity against E6-caspase 8 binding relative to GA (in words),E6-Caspase 8 binding,did not significantly affect the activity
"CC(=O)Oc1c2c(c(CC=C(C)C)c3c1C(=O)C1=C[C@@H]4CC5C(C)(C)OC(C/C=C(\C)C(=O)O)(C4=O)[C@@]15O3)OC(C)(CCC=C(C)C)C=C2 (stereo partly drawn) [analog #8, acetyl iso-gambogic acid]",activity / potency in cell-based MTT assay (in words),[2],diminished activity
same,inhibitory activity against E6-caspase 8 binding relative to GA (in words),E6-Caspase 8 binding,did not significantly affect the activity
CC(C)=CCC[C@]1(C)C=Cc2c(O)c3c(c(CC=C(C)C)c2O1)O[C@]12C(=C[C@@H]4C[C@H]1C(C)(C)O[C@@]2(C/C=C(/C)C(=O)O)C4=O)C3=O [gambogic acid],IC50,E6-E6AP binding,1700 nM
same,IC50,"E6-Caspase 8 binding; 11 compounds that passed counter-screening (Supplementary Table 3), read-out: IC50 against E6-Caspase 8 binding",2000 nM
same,IC50,"E6-Caspase 8 binding; head-to-head comparison gambogic acid vs myricetin (Figure 4A), read-out: IC50 against E6-Caspase 8",1900 nM
same,tolerability in animal studies,[6],relatively tolerable
"O=c1c(O)c(-c2cc(O)c(O)c(O)c2)oc2cc(O)cc(O)c12 [myricetin, reference compound]",IC50,E6-E6AP binding,5600 nM
same,IC50,E6-Caspase 8 binding; IC50 against E6-Caspase 8,4600 nM
